What was measured:
ATM = target: T1, ATM (Homo sapiens, UniProt Q13315); assay: ATM inhibition test (phosphorylation of Chk2 generated by ionizing radiation, AlphaScreen SureFire); format: cell-based; settings: phosphorylated Chk2 in NCI-H460 cells, ionizing radiation 8Gy, 1 hour after test compound treatment; read-out: ATM inhibitory activity
T1 construct: detecting phosphorylation of Chk2 in a human non-small cell lung cancer cell line NCI-H460 (ATCC company); host or cells: NCI-H460 human non-small cell lung cancer cells
T1 sequence (Q13315 whole entry): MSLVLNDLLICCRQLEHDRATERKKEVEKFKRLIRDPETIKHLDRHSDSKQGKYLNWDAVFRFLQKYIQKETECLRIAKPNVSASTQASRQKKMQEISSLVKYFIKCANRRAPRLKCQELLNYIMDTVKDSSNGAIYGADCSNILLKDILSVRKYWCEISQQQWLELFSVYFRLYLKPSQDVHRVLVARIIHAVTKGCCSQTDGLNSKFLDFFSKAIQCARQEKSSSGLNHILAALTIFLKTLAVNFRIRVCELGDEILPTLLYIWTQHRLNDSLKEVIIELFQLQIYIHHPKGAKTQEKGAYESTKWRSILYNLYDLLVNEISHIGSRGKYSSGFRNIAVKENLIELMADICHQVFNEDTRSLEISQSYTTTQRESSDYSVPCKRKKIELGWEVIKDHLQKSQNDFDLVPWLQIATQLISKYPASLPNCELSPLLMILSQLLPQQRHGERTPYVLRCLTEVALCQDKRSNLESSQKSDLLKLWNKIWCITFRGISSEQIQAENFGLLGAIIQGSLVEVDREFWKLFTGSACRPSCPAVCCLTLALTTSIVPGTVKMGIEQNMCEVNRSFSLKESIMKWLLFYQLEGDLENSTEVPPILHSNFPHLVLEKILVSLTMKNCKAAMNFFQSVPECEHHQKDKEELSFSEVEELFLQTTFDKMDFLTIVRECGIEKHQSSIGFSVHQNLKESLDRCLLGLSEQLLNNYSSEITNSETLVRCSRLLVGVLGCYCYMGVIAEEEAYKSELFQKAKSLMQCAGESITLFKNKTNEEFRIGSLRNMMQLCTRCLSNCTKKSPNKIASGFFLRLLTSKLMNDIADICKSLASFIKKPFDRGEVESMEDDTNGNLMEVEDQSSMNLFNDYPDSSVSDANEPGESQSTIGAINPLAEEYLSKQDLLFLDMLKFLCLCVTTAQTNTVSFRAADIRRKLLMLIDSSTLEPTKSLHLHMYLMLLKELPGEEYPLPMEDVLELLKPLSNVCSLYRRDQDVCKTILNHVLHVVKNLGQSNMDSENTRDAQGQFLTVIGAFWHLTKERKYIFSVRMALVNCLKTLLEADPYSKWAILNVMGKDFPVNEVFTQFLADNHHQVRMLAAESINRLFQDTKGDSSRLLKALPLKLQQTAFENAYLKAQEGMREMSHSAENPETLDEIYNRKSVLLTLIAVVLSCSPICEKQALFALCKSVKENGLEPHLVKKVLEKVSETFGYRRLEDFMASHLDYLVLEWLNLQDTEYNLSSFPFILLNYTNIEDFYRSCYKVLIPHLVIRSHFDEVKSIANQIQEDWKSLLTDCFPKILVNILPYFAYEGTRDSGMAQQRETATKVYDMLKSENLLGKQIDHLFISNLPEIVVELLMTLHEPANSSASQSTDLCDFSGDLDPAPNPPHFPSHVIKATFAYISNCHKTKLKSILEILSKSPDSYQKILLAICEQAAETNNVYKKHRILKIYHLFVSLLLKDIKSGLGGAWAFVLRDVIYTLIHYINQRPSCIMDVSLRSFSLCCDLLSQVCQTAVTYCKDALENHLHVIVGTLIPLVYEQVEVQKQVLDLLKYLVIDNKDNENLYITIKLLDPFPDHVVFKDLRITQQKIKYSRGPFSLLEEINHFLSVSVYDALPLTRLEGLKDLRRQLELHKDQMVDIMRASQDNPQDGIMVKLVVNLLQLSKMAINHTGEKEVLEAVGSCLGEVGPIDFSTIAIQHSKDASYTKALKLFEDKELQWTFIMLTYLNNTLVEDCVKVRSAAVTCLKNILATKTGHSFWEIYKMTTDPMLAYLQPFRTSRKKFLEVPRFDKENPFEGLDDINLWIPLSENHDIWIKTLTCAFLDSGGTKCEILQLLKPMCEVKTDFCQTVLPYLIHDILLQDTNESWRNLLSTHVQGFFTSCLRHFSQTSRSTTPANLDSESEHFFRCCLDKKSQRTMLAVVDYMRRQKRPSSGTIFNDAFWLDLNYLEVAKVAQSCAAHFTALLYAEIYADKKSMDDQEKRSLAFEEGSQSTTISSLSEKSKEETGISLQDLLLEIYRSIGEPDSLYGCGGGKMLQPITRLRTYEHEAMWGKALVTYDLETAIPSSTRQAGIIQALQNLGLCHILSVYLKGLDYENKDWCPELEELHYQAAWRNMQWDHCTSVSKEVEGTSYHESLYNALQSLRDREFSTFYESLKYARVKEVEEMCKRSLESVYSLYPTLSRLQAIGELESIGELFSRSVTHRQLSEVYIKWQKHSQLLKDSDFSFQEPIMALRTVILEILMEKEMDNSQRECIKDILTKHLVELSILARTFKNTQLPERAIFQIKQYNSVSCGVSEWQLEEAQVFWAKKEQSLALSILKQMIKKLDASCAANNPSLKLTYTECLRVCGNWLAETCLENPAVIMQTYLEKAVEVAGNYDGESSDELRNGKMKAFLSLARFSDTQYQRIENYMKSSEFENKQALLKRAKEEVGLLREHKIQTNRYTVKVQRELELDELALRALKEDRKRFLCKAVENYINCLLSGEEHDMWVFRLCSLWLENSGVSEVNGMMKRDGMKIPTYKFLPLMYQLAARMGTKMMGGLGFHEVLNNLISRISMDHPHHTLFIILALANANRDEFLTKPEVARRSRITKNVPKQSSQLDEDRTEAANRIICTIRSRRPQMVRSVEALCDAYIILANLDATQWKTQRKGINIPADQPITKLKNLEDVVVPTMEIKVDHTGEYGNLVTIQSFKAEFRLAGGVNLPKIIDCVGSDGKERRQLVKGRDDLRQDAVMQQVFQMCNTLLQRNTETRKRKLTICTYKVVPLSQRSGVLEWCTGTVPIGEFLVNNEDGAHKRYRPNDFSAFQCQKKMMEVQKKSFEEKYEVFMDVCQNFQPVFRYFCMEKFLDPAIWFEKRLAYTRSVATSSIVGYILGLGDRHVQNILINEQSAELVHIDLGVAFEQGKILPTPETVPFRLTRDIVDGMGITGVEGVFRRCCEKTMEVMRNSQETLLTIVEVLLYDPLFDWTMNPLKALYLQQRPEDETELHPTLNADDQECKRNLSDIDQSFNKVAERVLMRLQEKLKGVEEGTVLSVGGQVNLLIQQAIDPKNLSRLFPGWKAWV
Outline: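 Human NCI-H460 lung cancer cells were treated with compound for 1 h, then irradiated at 8Gy and incubated 1 h at 37° C. Phospho-Chk2 was quantified by AlphaScreen SureFire; inhibition % was normalised between irradiated untreated and non-irradiated untreated wells.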

[1] = test system: human non-small cell lung cancer cell line NCI-H460; assay: Cell proliferation inhibition test by sensitivity-enhancing to ionizing radiation (Cell Titer Glo); format: cell-based; settings: concentration in which SER became 2, NCI-H460 cells, ionizing radiation 2 Gy, cultured 120 hour
Outline: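 Radiosensitisation measured as SER, a ratio of Cell Titer Glo luminescence in irradiated vs unirradiated plates relative to DMSO; SER2, the concentration yielding SER 2, came from sigmoidal regression. Compound (0.1% DMSO) was given 24 h post-seeding, 2 Gy applied 30 min later, then 120 hour culture at 37° C.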

In the case of COCC(Nc1ccc2c(c1)Cc1cccc(-c3cc(N4CCOCC4)cc(=O)[nH]3)c1O2)c1cccc(C)n1 (stereo not drawn) [Example 2-14-45, 6-(7-((2-Methoxy-1-(6-methylpyridin-2-yl)ethyl)amino)-9H-xanthen-4-yl)-4-morpholino pyridin-2 (1H)-one], the IC50 (ATM) is reported as < 0.1 µM and the SER2 (concentration at which the radiation sensitivity-enhancement ratio reaches 2) ([1]; Homo sapiens, NCI-H460, 120 h) is reported as 100 to 500 nM.

For COc1ncc(CNc2ccc3c(c2)Cc2cccc(-c4cc(N5CCOCC5)cc(=O)[nH]4)c2O3)cn1 [Example 2-2-14, 6-(7-(((2-Methoxypyrimidin-5-yl)methyl)amino)-9H-xanthen-4-yl)-4-morpholino pyridin-2(1H)-one], the IC50 (ATM) was < 0.1 µM and the SER2 (concentration at which the radiation sensitivity-enhancement ratio reaches 2) ([1]; Homo sapiens, NCI-H460, 120 h) was 100 to 500 nM.

In the case of Cc1cccc(C(C)Nc2ccc3c(c2)Sc2cccc(-c4cc(N5CCOCC5)cc(=O)[nH]4)c2S3)n1 (single isomer, unassigned) [Example 1-12-136-1, 6-(7-((1-(6-methylpyridin-2-yl)ethyl)amino)thianthren-1-yl)-4-morpholinopyridin-2(1H)-one], the IC50 (ATM) is reported as < 0.1 µM and the SER2 (concentration at which the radiation sensitivity-enhancement ratio reaches 2) ([1]; Homo sapiens, NCI-H460, 120 h) is reported as < 100 nM.

O=c1cc(N2CCOCC2)cc(-c2cccc3c2Oc2ccc(NCc4ccc(Cl)s4)cc2C3)[nH]1 [Example 2-13-7, 6-(7-(((5-Chlorothiophen-2-yl)methyl)amino)-9H-xanthen-4-yl)-4-morpholino pyridin-2(1H)-one] was tested, and the IC50 (ATM) was < 0.1 µM and the SER2 (concentration at which the radiation sensitivity-enhancement ratio reaches 2) ([1]; Homo sapiens, NCI-H460, 120 h) was 500 to 2000 nM.

With Cc1ccc(CNc2ccc3c(c2)Sc2cccc(-c4cc(N5CCOCC5)cc(=O)[nH]4)c2S3)cn1 [Example 1-12-15, 6-(7-(((6-Methylpyridin-3-yl)methyl)amino)thianthren-1-yl)-4-morpholino pyridin-2 (1H)-one] the IC50 (ATM) was < 0.1 µM and the SER2 (concentration at which the radiation sensitivity-enhancement ratio reaches 2) ([1]; Homo sapiens, NCI-H460, 120 h) was 100 to 500 nM.

For Cc1cccc(CNc2ccc3c(c2)Cc2ccnc(-c4cc(N5CCOCC5)cc(=O)[nH]4)c2O3)n1 [Example 2-41-2, 6-(7-(((6-Methylpyridin-2-yl)methyl)amino)-5H-chromeno[2,3-c]pyridin-1-yl)-4-morpholino pyridin-2 (1H)-one], the IC50 (ATM) was < 0.1 µM and the SER2 (concentration at which the radiation sensitivity-enhancement ratio reaches 2) ([1]; Homo sapiens, NCI-H460, 120 h) was 100 to 500 nM.

COc1ncc(CNc2ccc3c(c2)Cc2cccc(-c4cc(N5CCOCC5)cc(=O)[nH]4)c2O3)cc1F [Example 2-2-18, 6-(7-(((5-Fluoro-6-methoxypyridin-3-yl)methyl)amino)-9H-xanthen-4-yl)-4-morpholino pyridin-2(1H)-one] showed an IC50 (ATM) of 0.1 to 0.5 µM and an SER2 (concentration at which the radiation sensitivity-enhancement ratio reaches 2) ([1]; Homo sapiens, NCI-H460, 120 h) of 500 to 2000 nM.

CC(CN1CCN(C)CC1)Nc1ccc2c(c1)Sc1cccc(-c3cc(N4CCOCC4)cc(=O)[nH]3)c1S2 (racemic) [Example 1-13-3-1, 6-(7-((1-(4-Methylpiperazin-1-yl)propan-2-yl)amino)thianthren-1-yl)-4-morpholinopyridin-2(1H)-one] was tested, and the IC50 (ATM) was < 0.1 µM and the SER2 (concentration at which the radiation sensitivity-enhancement ratio reaches 2) ([1]; Homo sapiens, NCI-H460, 120 h) was 100 to 500 nM.

For CN(C)c1cnc(CNc2ccc3c(c2)Sc2cccc(-c4cc(N5CCOCC5)cc(=O)[nH]4)c2O3)cn1 [Example 4-4-17, 6-(8-(((5-(Dimethylamino)pyrazin-2-yl)methyl)amino)phenoxathiin-4-yl)-4-morpholino pyridin-2(1H)-one], the IC50 (ATM) was < 0.1 µM and the SER2 (concentration at which the radiation sensitivity-enhancement ratio reaches 2) ([1]; Homo sapiens, NCI-H460, 120 h) was 100 to 500 nM.

In the case of CCC(Nc1ccc2c(c1)Sc1cccc(-c3cc(N4CCOCC4)cc(=O)[nH]3)c1S2)c1ccc(C)cn1 (stereo not drawn) [Example 1-12-118, 6-(7-((1-(5-Methylpyridin-2-yl)propyl)amino)thianthren-1-yl)-4-morpholino pyridin-2(1H)-one], the IC50 (ATM) is reported as < 0.1 µM and the SER2 (concentration at which the radiation sensitivity-enhancement ratio reaches 2) ([1]; Homo sapiens, NCI-H460, 120 h) is reported as 100 to 500 nM.

For Cc1ccc(C(Nc2ccc3c(c2)Sc2cccc(-c4cc(N5CCOCC5)cc(=O)[nH]4)c2S3)C2CCN(C)CC2)nc1 (single isomer, unassigned) [Example 1-51-2], the IC50 (ATM) was < 0.1 µM and the SER2 (concentration at which the radiation sensitivity-enhancement ratio reaches 2) [1] was 100 to 500 nM.

Molecule Cc1ccnc(C(C)Nc2ccc3c(c2)Cc2cccc(-c4cc(N5CCOCC5)cc(=O)[nH]4)c2O3)c1 (stereo not drawn) [Example 2-14-19, 6-(7-((1-(4-Methylpyridin-2-yl)ethyl)amino)-9H-xanthen-4-yl)-4-morpholino pyridin-2(1H)-one] has an IC50 (ATM) of 0.1 to 0.5 µM and an SER2 (concentration at which the radiation sensitivity-enhancement ratio reaches 2) ([1]; Homo sapiens, NCI-H460, 120 h) of 100 to 500 nM.

For COc1ccnc(CNc2ccc3c(c2)Sc2cccc(-c4cc(N5CCOCC5)cc(=O)[nH]4)c2S3)c1 [Example 1-12-4], the IC50 (ATM) was < 0.1 µM and the SER2 (concentration at which the radiation sensitivity-enhancement ratio reaches 2) ([1]; Homo sapiens, NCI-H460, 120 h) was 100 to 500 nM.

In the case of CC(Nc1ccc2c(c1)Sc1cccc(-c3cc(N4CCOCC4)cc(=O)[nH]3)c1S2)c1cc(C#N)ncn1 (single isomer, unassigned) [Example 1-12-146-1, 6-(1-((6-(4-morpholino-6-oxo-1,6-dihydropyridin-2-yl)thianthren-2-yl)amino)ethyl)pyrimidine-4-carbonitrile], the IC50 (ATM) is reported as < 0.1 µM and the SER2 (concentration at which the radiation sensitivity-enhancement ratio reaches 2) ([1]; Homo sapiens, NCI-H460, 120 h) is reported as 100 to 500 nM.

In the case of CC(Nc1ccc2c(c1)Sc1cccc(-c3cc(N4CCOCC4)cc(=O)[nH]3)c1S2)c1ncc(CO)cn1 (single isomer, unassigned) [Example 1-12-142-1, 6-(7-((1-(5-(hydroxymethyl)pyrimidin-2-yl)ethyl)amino)thianthren-1-yl)-4-morpholinopyridin-2(1H)-one], the IC50 (ATM) is reported as < 0.1 µM and the SER2 (concentration at which the radiation sensitivity-enhancement ratio reaches 2) ([1]; Homo sapiens, NCI-H460, 120 h) is reported as 100 to 500 nM.

For COc1ncc(CNc2ccc3c(c2)Sc2cccc(-c4cc(N5CCOCC5)cc(=O)[nH]4)c2O3)cc1F [Example 4-4-14, 6-(8-(((5-Fluoro-6-methoxypyridin-3-yl)methyl)amino)phenoxathiin-4-yl)-4-morpholino pyridin-2(1H)-one], the IC50 (ATM) was < 0.1 µM and the SER2 (concentration at which the radiation sensitivity-enhancement ratio reaches 2) ([1]; Homo sapiens, NCI-H460, 120 h) was 100 to 500 nM.

CNCC(Nc1ccc2c(c1)Sc1cccc(-c3cc(N4CCOCC4)cc(=O)[nH]3)c1S2)c1cc(C)ccn1 (stereo not drawn) [Example 1-19-3, 6-(7-((2-(Methylamino)-1-(4-methylpyridin-2-yl)ethyl)amino)thianthren-1-yl)-4-morpholinopyridin-2(1H)-one] was tested, and the IC50 (ATM) was < 0.1 µM and the SER2 (concentration at which the radiation sensitivity-enhancement ratio reaches 2) ([1]; Homo sapiens, NCI-H460, 120 h) was 100 to 500 nM.

For Cc1ccnc(C(C)Nc2ccc3c(c2)Sc2cccc(-c4cc(N5CCOCC5)cc(=O)[nH]4)c2S3)n1 (single isomer, unassigned) [Example 1-12-144-1, 6-(7-((1-(4-methylpyrimidin-2-yl)ethyl)amino)thianthren-1-yl)-4-morpholinopyridin-2(1H)-one], the IC50 (ATM) was < 0.1 µM and the SER2 (concentration at which the radiation sensitivity-enhancement ratio reaches 2) ([1]; Homo sapiens, NCI-H460, 120 h) was < 100 nM.

For Cc1cnc(C(CCN(C)C)Nc2ccc3c(c2)Sc2cccc(-c4cc(N5CCOCC5)cc(=O)[nH]4)c2S3)cn1 (single isomer, unassigned) [Example 1-22-12-2, 6-(7-((3-(dimethylamino)-1-(5-methylpyrazin-2-yl)propyl)amino)thianthren-1-yl)-4-morpholinopyridin-2(1H)-one], the IC50 (ATM) was < 0.1 µM and the SER2 (concentration at which the radiation sensitivity-enhancement ratio reaches 2) [1] was < 100 nM.

With Cc1ccc(C(Nc2ccc3c(c2)Sc2cccc(-c4cc(N5CCOCC5)cc(=O)[nH]4)c2S3)[C@H]2CN(CCN(C)C)CCO2)nc1 (single isomer, unassigned) [Example 10-2] the IC50 (ATM) was < 0.1 µM and the SER2 (concentration at which the radiation sensitivity-enhancement ratio reaches 2) ([1]; Homo sapiens, NCI-H460, 120 h) was < 100 nM.

Nc1ccc2c(c1)Sc1cccc(-c3cc(N4CCOCC4)cc(=O)[nH]3)c1S2 [Example 1-1, 6-(7-aminothianthren-1-yl)-4-morpholinopyridin-2(1H)-one] was tested, and the IC50 (ATM) was < 0.1 µM and the SER2 (concentration at which the radiation sensitivity-enhancement ratio reaches 2) ([1]; Homo sapiens, NCI-H460, 120 h) was 500 to 2000 nM.
